Active and inactive are the calls of the source.
Assays:
[1] = target: T1, Short transient receptor potential channel 4 (Mus musculus, UniProt Q9QUQ5); experiment: mouse TRPC4 channel activators, dose response, cell-based, HEK293 TRPC4/mu-opioid, Fluo-4 calcium (AID 434937); assay type: functional
T1 sequence (Q9QUQ5 whole entry): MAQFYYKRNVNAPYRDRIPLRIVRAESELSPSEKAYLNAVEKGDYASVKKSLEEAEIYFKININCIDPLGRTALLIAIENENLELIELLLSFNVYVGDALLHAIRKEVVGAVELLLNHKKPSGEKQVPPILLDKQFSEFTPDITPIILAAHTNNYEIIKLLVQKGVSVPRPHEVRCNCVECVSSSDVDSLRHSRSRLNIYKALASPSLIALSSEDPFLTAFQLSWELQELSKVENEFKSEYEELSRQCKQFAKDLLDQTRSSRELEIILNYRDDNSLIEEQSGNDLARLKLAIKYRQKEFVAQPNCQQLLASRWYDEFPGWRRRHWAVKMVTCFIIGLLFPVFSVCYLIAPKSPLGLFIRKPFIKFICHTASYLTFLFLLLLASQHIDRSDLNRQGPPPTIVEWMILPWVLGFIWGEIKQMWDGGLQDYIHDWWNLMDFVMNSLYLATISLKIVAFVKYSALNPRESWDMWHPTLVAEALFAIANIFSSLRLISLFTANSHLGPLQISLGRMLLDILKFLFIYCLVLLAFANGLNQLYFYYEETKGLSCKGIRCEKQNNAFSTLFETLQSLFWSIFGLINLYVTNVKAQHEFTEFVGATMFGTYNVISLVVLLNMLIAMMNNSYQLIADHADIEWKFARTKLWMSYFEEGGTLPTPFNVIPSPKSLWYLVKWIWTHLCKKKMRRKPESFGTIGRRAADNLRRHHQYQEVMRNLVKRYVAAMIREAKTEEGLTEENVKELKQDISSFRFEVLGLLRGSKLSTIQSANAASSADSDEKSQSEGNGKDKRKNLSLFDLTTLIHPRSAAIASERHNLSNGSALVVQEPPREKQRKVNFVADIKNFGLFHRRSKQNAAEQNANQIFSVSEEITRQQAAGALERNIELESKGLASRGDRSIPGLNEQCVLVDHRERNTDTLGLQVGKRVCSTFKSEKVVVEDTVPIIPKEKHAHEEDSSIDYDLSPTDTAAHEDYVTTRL

[2] = target: T2, Zinc finger protein mex-5 (Caenorhabditis elegans, UniProt Q9XUB2); experiment: MEX-5/TCR-2 RNA interaction inhibitors, dose response, biochemical, C. elegans, fluorescence polarization (AID 1960)
T2 sequence (Q9XUB2 whole entry): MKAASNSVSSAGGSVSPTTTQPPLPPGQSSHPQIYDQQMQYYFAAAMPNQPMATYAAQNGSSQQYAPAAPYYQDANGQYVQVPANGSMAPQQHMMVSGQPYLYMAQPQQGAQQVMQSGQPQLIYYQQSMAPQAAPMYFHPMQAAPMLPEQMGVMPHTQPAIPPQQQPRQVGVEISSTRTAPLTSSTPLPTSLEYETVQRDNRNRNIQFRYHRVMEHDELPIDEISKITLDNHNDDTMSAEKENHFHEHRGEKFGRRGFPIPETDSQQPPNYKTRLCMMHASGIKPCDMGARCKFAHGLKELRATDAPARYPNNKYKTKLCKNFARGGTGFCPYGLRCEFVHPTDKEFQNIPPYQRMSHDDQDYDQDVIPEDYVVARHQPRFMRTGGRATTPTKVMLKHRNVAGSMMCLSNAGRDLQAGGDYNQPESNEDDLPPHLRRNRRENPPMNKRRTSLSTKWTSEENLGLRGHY

[3] = target: T3, RNA-binding protein pos-1 (Caenorhabditis elegans, UniProt G5EF15); experiment: inhibitors of POS-1/mex-3 RNA binding, dose response, biochemical, fluorescence polarization (AID 1964);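 further: purified POS-1 fused to maltose binding protein made in E. coli; potency of compounds blocking POS-1 binding to fluorescent RNA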
T3 sequence (G5EF15 whole entry): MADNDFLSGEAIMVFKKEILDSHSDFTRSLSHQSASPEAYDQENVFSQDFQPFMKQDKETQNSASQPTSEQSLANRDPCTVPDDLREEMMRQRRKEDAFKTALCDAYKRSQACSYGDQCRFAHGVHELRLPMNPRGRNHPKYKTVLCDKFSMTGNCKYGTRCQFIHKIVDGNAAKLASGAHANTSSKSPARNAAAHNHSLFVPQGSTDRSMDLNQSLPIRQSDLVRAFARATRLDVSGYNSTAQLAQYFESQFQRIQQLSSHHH

[4] = target: T4, Polyadenylate-binding protein 1 (Homo sapiens, UniProt P11940); experiment: PABP1 MLLE–PAM2 binding inhibitor potency, dose response, biochemical, fluorescence polarization, FITC-PAM2 peptide (AID 602259); assay type: functional; settings: read-out: IC50_Mean
T4 sequence (P11940 whole entry): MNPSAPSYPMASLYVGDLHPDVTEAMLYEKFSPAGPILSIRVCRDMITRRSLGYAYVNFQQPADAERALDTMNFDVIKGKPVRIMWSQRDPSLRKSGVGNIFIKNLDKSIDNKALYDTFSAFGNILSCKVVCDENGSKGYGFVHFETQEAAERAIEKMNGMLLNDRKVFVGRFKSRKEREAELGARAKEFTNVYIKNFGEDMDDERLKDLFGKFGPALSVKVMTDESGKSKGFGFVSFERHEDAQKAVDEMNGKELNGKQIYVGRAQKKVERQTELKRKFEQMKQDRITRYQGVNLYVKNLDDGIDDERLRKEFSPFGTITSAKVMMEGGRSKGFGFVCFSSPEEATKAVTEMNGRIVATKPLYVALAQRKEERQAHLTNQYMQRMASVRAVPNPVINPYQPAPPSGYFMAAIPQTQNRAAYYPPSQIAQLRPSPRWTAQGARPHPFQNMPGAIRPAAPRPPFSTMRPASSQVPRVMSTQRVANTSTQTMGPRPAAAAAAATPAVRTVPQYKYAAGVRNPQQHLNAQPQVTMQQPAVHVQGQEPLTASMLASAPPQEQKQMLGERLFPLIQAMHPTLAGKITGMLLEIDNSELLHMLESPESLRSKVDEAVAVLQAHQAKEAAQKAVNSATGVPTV

[5] = target: T4, Polyadenylate-binding protein 1; experiment: PABP1 MLLE–PAM2 interaction inhibitors, dose response, miRNA deadenylation inhibitor project, biochemical, fluorescence polarization, Cy5-PAM2 peptide, secondary (AID 602260); assay type: functional; settings: read-out: IC50_Mean
[6] = target: Cytochrome P450 2C9 (Homo sapiens, UniProt P11712)
Cytochrome P450 2C9, sequence (P11712 whole entry): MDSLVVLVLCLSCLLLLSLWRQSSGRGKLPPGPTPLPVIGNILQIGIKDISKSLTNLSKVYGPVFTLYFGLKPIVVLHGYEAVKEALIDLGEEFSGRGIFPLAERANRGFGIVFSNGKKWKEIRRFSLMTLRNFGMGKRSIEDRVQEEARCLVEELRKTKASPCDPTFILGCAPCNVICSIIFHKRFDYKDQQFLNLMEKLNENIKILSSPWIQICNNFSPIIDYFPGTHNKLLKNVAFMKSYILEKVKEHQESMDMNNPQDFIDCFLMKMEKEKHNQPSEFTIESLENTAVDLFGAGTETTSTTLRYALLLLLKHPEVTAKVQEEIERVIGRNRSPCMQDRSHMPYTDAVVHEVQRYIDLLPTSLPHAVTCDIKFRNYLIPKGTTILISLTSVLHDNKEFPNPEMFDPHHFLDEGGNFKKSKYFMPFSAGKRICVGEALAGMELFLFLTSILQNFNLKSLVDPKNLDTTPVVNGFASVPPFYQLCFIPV

[7] = target: Cytochrome P450 2D6 (Homo sapiens, UniProt P10635);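 further: CYP2D6 member of a cytochrome P450 panel assay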
Cytochrome P450 2D6, sequence (P10635 whole entry): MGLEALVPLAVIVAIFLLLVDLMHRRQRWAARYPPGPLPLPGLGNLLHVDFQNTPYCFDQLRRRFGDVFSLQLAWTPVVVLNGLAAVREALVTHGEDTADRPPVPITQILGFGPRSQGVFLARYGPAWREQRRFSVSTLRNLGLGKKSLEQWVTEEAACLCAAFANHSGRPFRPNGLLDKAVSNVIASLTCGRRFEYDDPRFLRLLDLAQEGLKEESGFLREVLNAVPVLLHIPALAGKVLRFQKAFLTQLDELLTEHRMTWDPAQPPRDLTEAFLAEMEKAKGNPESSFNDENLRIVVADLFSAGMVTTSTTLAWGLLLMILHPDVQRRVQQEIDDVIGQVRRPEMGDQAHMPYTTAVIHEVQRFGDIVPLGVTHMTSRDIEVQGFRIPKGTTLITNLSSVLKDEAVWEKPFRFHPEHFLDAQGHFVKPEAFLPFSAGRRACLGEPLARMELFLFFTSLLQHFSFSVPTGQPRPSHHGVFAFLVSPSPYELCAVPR

[8] = target: T5, Rac GTPase-activating protein 1 (Homo sapiens, UniProt Q9H0H5); experiment: MgcRacGAP GTPase-activating activity inhibitors, confirmation, biochemical, ADP Hunter fluorescence, primary and confirmatory (AID 624330); assay type: functional
T5 sequence (Q9H0H5 whole entry): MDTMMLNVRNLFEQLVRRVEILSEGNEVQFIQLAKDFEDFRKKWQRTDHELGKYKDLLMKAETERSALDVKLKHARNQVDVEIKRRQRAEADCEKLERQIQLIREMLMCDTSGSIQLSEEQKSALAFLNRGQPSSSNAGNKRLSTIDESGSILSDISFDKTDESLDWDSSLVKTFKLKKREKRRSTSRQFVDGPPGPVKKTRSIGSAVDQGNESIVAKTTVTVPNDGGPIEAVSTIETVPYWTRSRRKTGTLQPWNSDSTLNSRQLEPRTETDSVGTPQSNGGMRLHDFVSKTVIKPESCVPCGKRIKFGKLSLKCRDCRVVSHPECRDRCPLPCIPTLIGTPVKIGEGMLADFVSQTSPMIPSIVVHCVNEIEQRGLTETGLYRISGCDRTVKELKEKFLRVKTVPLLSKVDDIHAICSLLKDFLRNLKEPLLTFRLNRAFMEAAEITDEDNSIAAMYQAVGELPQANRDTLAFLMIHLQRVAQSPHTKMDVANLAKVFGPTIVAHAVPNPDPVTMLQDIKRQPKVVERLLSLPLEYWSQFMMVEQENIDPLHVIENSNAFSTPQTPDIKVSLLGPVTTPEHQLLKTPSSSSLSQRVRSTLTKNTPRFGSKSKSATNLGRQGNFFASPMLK

[9] = test system: Streptococcus; experiment: Group A Streptococcus viability loss, dose response, counter-screen for streptokinase expression inhibitor project, luminescence, BacTiterGlo (AID 1915); assay type: functional, organism-based;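 further: potency for reduction of bacterial viability or growth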
[10] = target: T6, Streptokinase A (Streptococcus pyogenes serotype M1, UniProt P10520); experiment: S. pyogenes streptokinase expression inhibitors, potency, dose response, plasminogen activation absorbance, OD405 (AID 1914); assay type: functional, Streptococcus pyogenes M1 GAS;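 further: secreted streptokinase activity via plasminogen activation per viability signal from cell pellet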
T6 sequence (P10520 whole entry): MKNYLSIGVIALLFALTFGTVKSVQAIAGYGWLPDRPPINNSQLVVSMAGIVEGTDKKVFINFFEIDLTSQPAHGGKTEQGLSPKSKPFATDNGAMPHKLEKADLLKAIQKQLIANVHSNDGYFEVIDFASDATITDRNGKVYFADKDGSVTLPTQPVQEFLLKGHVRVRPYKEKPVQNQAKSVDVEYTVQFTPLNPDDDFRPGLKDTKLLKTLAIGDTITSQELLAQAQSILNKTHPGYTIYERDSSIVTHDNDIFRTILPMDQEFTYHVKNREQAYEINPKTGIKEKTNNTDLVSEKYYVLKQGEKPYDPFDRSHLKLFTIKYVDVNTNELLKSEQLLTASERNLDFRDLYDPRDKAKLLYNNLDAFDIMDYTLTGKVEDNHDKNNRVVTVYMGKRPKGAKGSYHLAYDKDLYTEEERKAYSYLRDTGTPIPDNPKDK

[11] = test system: Streptococcus sp. 'group A'; experiment: growth inhibition of control SK(-) GAS strain, dose response, counter-screen for streptokinase expression inhibitor project, luminescence, kanamycin, BacTiterGlo, confirmation (AID 1900); assay type: functional, organism-based
[12] = target: Cytochrome P450 3A4 (Homo sapiens, UniProt P08684);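 further: CYP3A4 tested as one member of a cytochrome P450 panel screen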
Cytochrome P450 3A4, sequence (P08684 whole entry): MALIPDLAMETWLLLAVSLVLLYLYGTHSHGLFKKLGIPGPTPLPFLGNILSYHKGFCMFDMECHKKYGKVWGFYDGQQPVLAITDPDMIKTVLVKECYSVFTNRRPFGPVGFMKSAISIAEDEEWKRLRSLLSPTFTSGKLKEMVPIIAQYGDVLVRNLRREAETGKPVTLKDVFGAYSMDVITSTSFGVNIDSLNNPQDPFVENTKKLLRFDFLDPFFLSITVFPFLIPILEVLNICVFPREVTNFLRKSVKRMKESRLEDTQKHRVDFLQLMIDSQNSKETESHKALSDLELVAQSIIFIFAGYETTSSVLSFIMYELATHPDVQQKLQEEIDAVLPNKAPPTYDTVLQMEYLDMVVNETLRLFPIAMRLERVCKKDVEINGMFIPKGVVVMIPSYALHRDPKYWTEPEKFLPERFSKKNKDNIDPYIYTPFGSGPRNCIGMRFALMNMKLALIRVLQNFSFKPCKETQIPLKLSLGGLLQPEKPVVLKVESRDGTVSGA

[13] = target: Cytochrome P450 2C19 (Homo sapiens, UniProt P33261); experiment: Cytochrome panel assay with activity outcomes. Panel member name: p450-cyp2c19 Compounds with AC50 equal or less than 10 uM are considered active; assay type: functional; settings: read-out: AC50
Cytochrome P450 2C19, sequence (P33261 whole entry): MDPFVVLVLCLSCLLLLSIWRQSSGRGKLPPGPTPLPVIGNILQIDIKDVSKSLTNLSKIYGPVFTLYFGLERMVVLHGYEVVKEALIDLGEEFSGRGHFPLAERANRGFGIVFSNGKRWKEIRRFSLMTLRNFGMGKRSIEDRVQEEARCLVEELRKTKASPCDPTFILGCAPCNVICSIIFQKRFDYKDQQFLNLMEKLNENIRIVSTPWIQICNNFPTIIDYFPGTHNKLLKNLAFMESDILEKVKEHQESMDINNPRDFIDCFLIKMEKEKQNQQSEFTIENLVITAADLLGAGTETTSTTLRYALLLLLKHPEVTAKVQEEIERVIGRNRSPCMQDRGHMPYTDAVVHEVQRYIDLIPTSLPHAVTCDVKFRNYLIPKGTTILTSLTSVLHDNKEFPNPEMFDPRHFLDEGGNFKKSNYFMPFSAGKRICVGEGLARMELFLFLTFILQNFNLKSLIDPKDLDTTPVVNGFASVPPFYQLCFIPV

[14] = microbe, parasite or virus in culture; assay type: functional; settings: Mycobacterium tuberculosis
[15] = cells; assay type: functional
[16] = target: T7, Cytochrome P450 1A2 (Homo sapiens, UniProt P05177);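 further: PubChem cytochrome P450 panel assay, CYP1A2 panel member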
T7 sequence (P05177 whole entry): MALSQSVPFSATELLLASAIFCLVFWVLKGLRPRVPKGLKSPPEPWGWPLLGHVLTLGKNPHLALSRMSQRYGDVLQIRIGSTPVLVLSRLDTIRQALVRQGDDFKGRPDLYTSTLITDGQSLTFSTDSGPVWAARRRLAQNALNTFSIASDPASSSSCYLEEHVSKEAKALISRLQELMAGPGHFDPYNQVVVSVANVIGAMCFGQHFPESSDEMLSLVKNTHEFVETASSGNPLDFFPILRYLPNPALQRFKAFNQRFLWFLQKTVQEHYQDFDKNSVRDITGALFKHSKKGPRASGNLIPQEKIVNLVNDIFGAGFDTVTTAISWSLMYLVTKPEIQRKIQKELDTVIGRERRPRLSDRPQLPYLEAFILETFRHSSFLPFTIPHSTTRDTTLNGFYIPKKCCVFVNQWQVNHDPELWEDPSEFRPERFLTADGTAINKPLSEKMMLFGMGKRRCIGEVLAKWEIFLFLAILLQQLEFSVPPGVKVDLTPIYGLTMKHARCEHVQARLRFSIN

With COc1ccc(-c2nc(CSCC(=O)NC3CCN(Cc4ccccc4)CC3)c(C)o2)cc1OC the EC50 [1] was 1.5 µM (active).

With CC1C2C(C)N(C)C(=O)N(C)C2N(C)C(=O)N1C (stereo unspecified) the EC50 [2] was 18.5 µM (active), the EC50 [3] was 25 µM (active) and the IC50 [4] was 29.1 µM (inactive). For the same molecule, the IC50 [5] was > 66 µM (inactive).

With C=CCN=C(NC#N)SCc1ccccc1 the AC50 [6] was 15.8 µM (inconclusive) and the AC50 [7] was 22.4 µM (inconclusive).

In the case of COc1ccccc1CCn1c(=O)c(-c2cccc(Cl)c2)nc2cncnc21, the AC50 [7] is reported as 31.6 µM (inconclusive).

For C[C@@H]1CC[C@@H]2C(=O)N3[C@@H](CC[C@@H](C)[C@@H]3c3ccc(-c4ccco4)cc3)C(=O)N2[C@H]1c1ccc(-c2ccco2)cc1, the AC50 [7] was 6.31 µM (inconclusive).

In the case of Cc1ccc(NC(=O)CNCC(c2ccccc2)N(C)C)cc1F (stereo unspecified), the EC50 [1] is reported as 0.596 µM (active) and the IC50 [8] is reported as 70.8 µM (active).

In the case of N#Cc1cccc(-c2nc(NCc3cccs3)c3ccccc3n2)c1, the AC50 [7] is reported as 5.01 µM (inconclusive).

With CN(C)CCCN(C(=O)c1ccc(S(=O)(=O)N2CCCCCC2)cc1)c1nc2ccc(F)cc2s1 the EC50 [1] was 4.22 µM (active).

In the case of S=C(NCCc1ccccn1)NC1CCCCC1, the EC50 [1] is reported as 6.68 µM (active).

For Cc1ccc(/C=C2/Sc3ccc(C(=O)N4CCN(c5ccccn5)CC4)cc3NC2=O)cc1, the EC50 [9] was 4.43 µM (active), the EC50 [10] was > 150 µM (not active) and the EC50 [2] was 5.05 µM (active). The EC50 [3] was 27.2 µM (active) and the EC50 [11] was 3.03 µM (active).

In the case of COCCn1c(=O)c(-c2ccccc2)nc2cnc(N(C)C)nc21, the AC50 [12] is reported as 39.8 µM (inconclusive), the AC50 [7] is reported as 12.6 µM (inconclusive) and the AC50 [13] is reported as 2 µM (inconclusive).

In the case of Cc1c(C(=O)N(C)C)sc2nc(-c3ccccn3)nc(O)c12, the CC50 [14] is reported as > 40 µM (active) and the IC50 [15] is reported as 9.8 µM (active).

With COC(=O)COc1cccc(/C=N/NC(=O)CCSc2ccccc2)c1 the IC50 [15] was 4.13 µM (active).

With CCOc1cc(/C=N/NC(=O)c2cccc([N+](=O)[O-])c2)ccc1OS(=O)(=O)c1ccccc1 the AC50 [6] was 11.2 µM (inconclusive), the AC50 [12] was 8.91 µM (inconclusive) and the AC50 [7] was 1 µM (inconclusive). For the same molecule, the AC50 [16] was 7.08 µM (inconclusive).

For COc1cc(/C=N/NC(=O)c2ccncc2)ccc1OC(=O)c1cccc(F)c1, the IC50 [15] was 0.48 µM (active).

In the case of C[C@H]1OC[C@@H](C[N+](C)(C)C)O1, the EC50 [1] is reported as 0.188 µM (active).
